Test system: NHBE cells
Test: Biolog metabolic array: substrate use by NHBE cells with or without CA09 infection
Assay type: cell-based, human
Details: for Substrate use, 590 nm absorbance normalized to zero hour, 0 hr: Biolog PMM2, 0 hr; for Substrate use, 590 nm absorbance normalized to zero hour, 1 hr: Biolog PMM2, 1 hr; for Substrate use, 590 nm absorbance normalized to zero hour, 5 hr: Biolog PMM2, 5 hr; for Substrate use, 590 nm absorbance normalized to zero hour, 7 hr: Biolog PMM2, 7 hr
[1] = Control (uninfected) NHBE cells
[2] = Virus (CA09-infected, MOI 1) NHBE cells
[3] = Virus: CA09-infected NHBE cells, MOI 1, Biolog PMM2
[4] = Virus (CA09-infected NHBE cells, MOI 1)

| Structure (SMILES) | 590 nm absorbance normalized to zero hour (substrate use), 1 hr [1] | 590 nm absorbance normalized to zero hour (substrate use), 2 hr [1] | 590 nm absorbance normalized to zero hour (substrate use), 3 hr [1] | 590 nm absorbance normalized to zero hour (substrate use), 4 hr [1] | 590 nm absorbance normalized to zero hour (substrate use), 6 hr [1] | 590 nm absorbance normalized to zero hour (substrate use), 8 hr [1] | 590 nm absorbance normalized to zero hour (substrate use), 9 hr [1] | 590 nm absorbance normalized to zero hour (substrate use), 10 hr [1] | 590 nm absorbance normalized to zero hour (substrate use), 11 hr [1] | Substrate use, 590 nm absorbance normalized to zero hour, 1 hr [1] | Substrate use, 590 nm absorbance normalized to zero hour, 5 hr [1] | Substrate use, 590 nm absorbance normalized to zero hour, 7 hr [1] | 590 nm absorbance normalized to zero hour (substrate use), 1 hr [3] | 590 nm absorbance normalized to zero hour (substrate use), 2 hr [3] | 590 nm absorbance normalized to zero hour (substrate use), 3 hr [3] | 590 nm absorbance normalized to zero hour (substrate use), 4 hr [3] | 590 nm absorbance normalized to zero hour (substrate use), 5 hr [3] | 590 nm absorbance normalized to zero hour (substrate use), 6 hr [3] | 590 nm absorbance normalized to zero hour (substrate use), 7 hr [3] | 590 nm absorbance normalized to zero hour (substrate use), 8 hr [3] | further results |
| --- | --- | --- | --- | --- | --- | --- | --- | --- | --- | --- | --- | --- | --- | --- | --- | --- | --- | --- | --- | --- | --- |
| OC[C@H]1O[C@@H](O[C@H]2[C@H](O)[C@@H](O)[C@H](O)O[C@@H]2CO)[C@H](O)[C@@H](O)[C@@H]1O [D-Cellobiose] | 1.74 | 2.30 | 2.69 | 2.91 | 4.52 | 4.59 | 5.13 | 5.20 | 5.51 | 1.74 | 3.55 | 4.26 | 1.58 | 2.09 | 2.38 | 2.49 | 2.81 | 3.00 | 3.14 | 3.31 | 590 nm absorbance normalized to zero hour (substrate use), 0 hr [1]: 1.00; Substrate use, 590 nm absorbance normalized to zero hour, 0 hr [1]: 1.00; 590 nm absorbance normalized to zero hour (substrate use), 0 hr [2]: 1.00; 590 nm absorbance normalized to zero hour (substrate use), 1 hr [2]: 1.58; 590 nm absorbance normalized to zero hour (substrate use), 2 hr [2]: 2.09; 590 nm absorbance normalized to zero hour (substrate use), 3 hr [2]: 2.38; 590 nm absorbance normalized to zero hour (substrate use), 4 hr [2]: 2.49; 590 nm absorbance normalized to zero hour (substrate use), 5 hr [2]: 2.81; 590 nm absorbance normalized to zero hour (substrate use), 6 hr [2]: 3.00; 590 nm absorbance normalized to zero hour (substrate use), 7 hr [2]: 3.14; 590 nm absorbance normalized to zero hour (substrate use), 8 hr [2]: 3.31; 590 nm absorbance normalized to zero hour (substrate use), 9 hr [2]: 3.54; 590 nm absorbance normalized to zero hour (substrate use), 10 hr [2]: 3.69; 590 nm absorbance normalized to zero hour (substrate use), 11 hr [2]: 4.06; 590 nm absorbance normalized to zero hour (substrate use), 0 hr [3]: 1.00; 590 nm absorbance normalized to zero hour (substrate use), 9 hr [3]: 3.54; 590 nm absorbance normalized to zero hour (substrate use), 10 hr [3]: 3.69; 590 nm absorbance normalized to zero hour (substrate use), 11 hr [3]: 4.06 |
| O=C(CO)[C@@H](O)[C@H](O)[C@H](O)COP(=O)(O)O [D-Fructose-6-Phosphate] | 1.03 | 0.90 | 0.59 | 0.97 | 0.23 | 0.49 | 0.97 | 0.92 | 0.64 | 1.03 | 0.54 | 1.00 | 0.59 | 0.75 | 0.87 | 0.94 | 1.11 | 1.18 | 1.27 | 1.35 | 590 nm absorbance normalized to zero hour (substrate use), 1 hr [2]: 0.59; 590 nm absorbance normalized to zero hour (substrate use), 2 hr [2]: 0.75; 590 nm absorbance normalized to zero hour (substrate use), 3 hr [2]: 0.87; 590 nm absorbance normalized to zero hour (substrate use), 4 hr [2]: 0.94; 590 nm absorbance normalized to zero hour (substrate use), 5 hr [2]: 1.11; 590 nm absorbance normalized to zero hour (substrate use), 6 hr [2]: 1.18; 590 nm absorbance normalized to zero hour (substrate use), 7 hr [2]: 1.27; 590 nm absorbance normalized to zero hour (substrate use), 8 hr [2]: 1.35; 590 nm absorbance normalized to zero hour (substrate use), 9 hr [2]: 1.49; 590 nm absorbance normalized to zero hour (substrate use), 10 hr [2]: 1.55; 590 nm absorbance normalized to zero hour (substrate use), 11 hr [2]: 1.65; 590 nm absorbance normalized to zero hour (substrate use), 9 hr [3]: 1.49; 590 nm absorbance normalized to zero hour (substrate use), 10 hr [3]: 1.55; 590 nm absorbance normalized to zero hour (substrate use), 11 hr [3]: 1.65 |
| O=C(CO)[C@@H](O)[C@H](O)[C@H](O)CO [D-Fructose] | 2.31 | 2.22 | 1.77 | 2.00 | 1.51 | 3.38 | 4.01 | 3.99 | 4.24 | 2.31 | 2.59 | 3.18 | 0.44 | 0.58 | 0.71 | 0.79 | 1.00 | 1.09 | 1.17 | 1.26 | 590 nm absorbance normalized to zero hour (substrate use), 1 hr [4]: 0.44; 590 nm absorbance normalized to zero hour (substrate use), 2 hr [4]: 0.58; 590 nm absorbance normalized to zero hour (substrate use), 3 hr [4]: 0.71; 590 nm absorbance normalized to zero hour (substrate use), 4 hr [4]: 0.79; 590 nm absorbance normalized to zero hour (substrate use), 5 hr [4]: 1.00; 590 nm absorbance normalized to zero hour (substrate use), 6 hr [4]: 1.09; 590 nm absorbance normalized to zero hour (substrate use), 7 hr [4]: 1.17; 590 nm absorbance normalized to zero hour (substrate use), 8 hr [4]: 1.26; 590 nm absorbance normalized to zero hour (substrate use), 9 hr [4]: 1.43; 590 nm absorbance normalized to zero hour (substrate use), 10 hr [4]: 1.52; 590 nm absorbance normalized to zero hour (substrate use), 11 hr [4]: 1.70; 590 nm absorbance normalized to zero hour (substrate use), 9 hr [3]: 1.43; 590 nm absorbance normalized to zero hour (substrate use), 10 hr [3]: 1.52; 590 nm absorbance normalized to zero hour (substrate use), 11 hr [3]: 1.70 |
| C[C@@H](O)[C@H](O)[C@H](O)[C@@H](O)C=O [D-Fucose] | 1.61 | 1.96 | 2.02 | 2.15 | 2.11 | 2.49 | 2.69 | 2.78 | 2.97 | 1.61 | 2.65 | 2.19 | 0.66 | 0.33 | 0.67 | 0.64 | 0.62 | 0.65 | 0.65 | 0.60 | 590 nm absorbance normalized to zero hour (substrate use), 0 hr [1]: 1.00; Substrate use, 590 nm absorbance normalized to zero hour, 0 hr [1]: 1.00; 590 nm absorbance normalized to zero hour (substrate use), 0 hr [4]: 1.00; 590 nm absorbance normalized to zero hour (substrate use), 1 hr [4]: 0.66; 590 nm absorbance normalized to zero hour (substrate use), 2 hr [4]: 0.33; 590 nm absorbance normalized to zero hour (substrate use), 3 hr [4]: 0.67; 590 nm absorbance normalized to zero hour (substrate use), 4 hr [4]: 0.64; 590 nm absorbance normalized to zero hour (substrate use), 5 hr [4]: 0.62; 590 nm absorbance normalized to zero hour (substrate use), 6 hr [4]: 0.65; 590 nm absorbance normalized to zero hour (substrate use), 7 hr [4]: 0.65; 590 nm absorbance normalized to zero hour (substrate use), 8 hr [4]: 0.60; 590 nm absorbance normalized to zero hour (substrate use), 9 hr [4]: 0.52; 590 nm absorbance normalized to zero hour (substrate use), 10 hr [4]: 0.57; 590 nm absorbance normalized to zero hour (substrate use), 11 hr [4]: 0.61; 590 nm absorbance normalized to zero hour (substrate use), 0 hr [3]: 1.00; 590 nm absorbance normalized to zero hour (substrate use), 9 hr [3]: 0.52; 590 nm absorbance normalized to zero hour (substrate use), 10 hr [3]: 0.57; 590 nm absorbance normalized to zero hour (substrate use), 11 hr [3]: 0.61 |

Source: patent publication US11083725B2 (priority 2014, dated 2021)
